Test results as given in ChEMBL document CHEMBL4706543, “Discovery of the first potent and selective αβ integrin inhibitor based on an amide-containing core” (Eur J Med Chem, 2020).
In brackets after ≈: the same amount, converted by molar mass.

Assays:
[1] = molecular target: T1, Integrin alpha-V/beta-5 (Homo sapiens, UniProt P06756+P18084); experiment: Inhibition of integrin alphavbeta5 (unknown origin) by fluorescence polarization assay
[2] = molecular target: T2, Integrin alpha-V/beta-3 (Homo sapiens, UniProt P05106+P06756); experiment: Inhibition of integrin alphavbeta3 (unknown origin) by fluorescence polarization assay
[3] = species: Homo sapiens; experiment: Selectivity ratio of IC50 for inhibition of integrin alphavbeta3 (unknown origin) to IC50 for inhibition of integrin alphavbeta5 (unknown origin)
[4] = molecular target: T1, Integrin alpha-V/beta-5; experiment: Inhibition of human alphavbeta5 integrin stably expressed in human K562 cells assessed as inhibition of cell adhesion to vitronectin incubated for 30 mins by BCECF-AM staining based fluorescence assay
[5] = molecular target: T2, Integrin alpha-V/beta-3; experiment: Inhibition of human alphavbeta3 integrin stably expressed in human K562 cells assessed as inhibition of cell adhesion to GST-LAP1 incubated for 30 mins by BCECF-AM staining based fluorescence assay
[6] = Clearance in human hepatocytes assessed per gram tissue; type: ADME, cell-based, Hepatocyte
[7] = Clearance in human microsomes based well stirred model; type: ADME, Microsome
[8] = Clearance in human hepatocytes based well stirred model; type: ADME, cell-based, Hepatocyte
[9] = Clearance in rat hepatocytes assessed per gram tissue; type: ADME, cell-based, Hepatocyte
[10] = Clearance in rat microsomes assessed per gram tissue; type: ADME, Microsome
[11] = Lipophilicity, log D of compound by chromatographic method; type: physicochemical
[12] = Clearance in human microsomes assessed per gram tissue; type: ADME, Microsome
[13] = Clearance in rat hepatocytes based well stirred model; type: ADME, cell-based, Hepatocyte
[14] = Solubility of the compound by CAD method; type: physicochemical
[15] = Passive permeability of compound in MDCK cells; type: ADME, cell-based, Canis lupus familiaris; settings: dog, read-out: permeability
[16] = Clearance in rat microsomes based well stirred model; type: ADME, Microsome
[17] = molecular target: Integrin alpha-V/beta-1 (Homo sapiens, UniProt P05556+P06756); experiment: Inhibition of integrin alphavbeta1 (unknown origin) by fluorescence polarization assay; type: protein-complex assay
[18] = molecular target: Integrin alpha-V/beta-6 (Homo sapiens, UniProt P06756+P18564); experiment: Inhibition of integrin alphavbeta6 (unknown origin) by fluorescence polarization assay; type: protein-complex assay
[19] = molecular target: Integrin alpha-V/beta-8 (Homo sapiens, UniProt P06756+P26012); experiment: Inhibition of integrin alphavbeta8 (unknown origin) by fluorescence polarization assay; type: protein-complex assay
Integrin alpha-V/beta-8, sequence (P06756 31-889 limits assumed): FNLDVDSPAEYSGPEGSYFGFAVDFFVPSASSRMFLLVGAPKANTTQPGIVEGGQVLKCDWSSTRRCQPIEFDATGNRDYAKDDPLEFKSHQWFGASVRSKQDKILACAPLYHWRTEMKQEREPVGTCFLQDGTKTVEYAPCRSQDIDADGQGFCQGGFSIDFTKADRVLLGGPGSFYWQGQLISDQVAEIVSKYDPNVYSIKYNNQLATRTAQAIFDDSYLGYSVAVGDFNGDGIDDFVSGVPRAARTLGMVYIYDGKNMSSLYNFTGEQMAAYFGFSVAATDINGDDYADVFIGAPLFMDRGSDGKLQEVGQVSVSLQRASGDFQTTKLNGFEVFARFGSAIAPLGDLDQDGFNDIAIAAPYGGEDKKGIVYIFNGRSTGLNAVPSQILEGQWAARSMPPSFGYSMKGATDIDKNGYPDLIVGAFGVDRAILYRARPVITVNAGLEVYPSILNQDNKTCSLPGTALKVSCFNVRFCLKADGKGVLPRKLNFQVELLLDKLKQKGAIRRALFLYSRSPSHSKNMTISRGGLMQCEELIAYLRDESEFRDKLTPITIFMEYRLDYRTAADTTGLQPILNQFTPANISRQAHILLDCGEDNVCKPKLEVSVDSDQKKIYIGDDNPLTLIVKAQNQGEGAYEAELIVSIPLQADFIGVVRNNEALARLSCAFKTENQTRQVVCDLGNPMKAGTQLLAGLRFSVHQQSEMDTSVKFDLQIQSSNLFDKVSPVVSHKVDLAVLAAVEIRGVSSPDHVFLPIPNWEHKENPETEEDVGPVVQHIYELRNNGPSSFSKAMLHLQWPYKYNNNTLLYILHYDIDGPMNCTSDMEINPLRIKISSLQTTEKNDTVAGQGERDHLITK
Integrin alpha-V/beta-8, sequence (P06756 891-1048 limits assumed): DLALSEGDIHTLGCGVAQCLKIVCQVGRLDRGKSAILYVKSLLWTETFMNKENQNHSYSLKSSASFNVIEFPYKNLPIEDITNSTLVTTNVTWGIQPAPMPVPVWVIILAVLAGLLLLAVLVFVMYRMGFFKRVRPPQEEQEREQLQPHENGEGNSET
Integrin alpha-V/beta-8, sequence (P26012 43-769 limits assumed): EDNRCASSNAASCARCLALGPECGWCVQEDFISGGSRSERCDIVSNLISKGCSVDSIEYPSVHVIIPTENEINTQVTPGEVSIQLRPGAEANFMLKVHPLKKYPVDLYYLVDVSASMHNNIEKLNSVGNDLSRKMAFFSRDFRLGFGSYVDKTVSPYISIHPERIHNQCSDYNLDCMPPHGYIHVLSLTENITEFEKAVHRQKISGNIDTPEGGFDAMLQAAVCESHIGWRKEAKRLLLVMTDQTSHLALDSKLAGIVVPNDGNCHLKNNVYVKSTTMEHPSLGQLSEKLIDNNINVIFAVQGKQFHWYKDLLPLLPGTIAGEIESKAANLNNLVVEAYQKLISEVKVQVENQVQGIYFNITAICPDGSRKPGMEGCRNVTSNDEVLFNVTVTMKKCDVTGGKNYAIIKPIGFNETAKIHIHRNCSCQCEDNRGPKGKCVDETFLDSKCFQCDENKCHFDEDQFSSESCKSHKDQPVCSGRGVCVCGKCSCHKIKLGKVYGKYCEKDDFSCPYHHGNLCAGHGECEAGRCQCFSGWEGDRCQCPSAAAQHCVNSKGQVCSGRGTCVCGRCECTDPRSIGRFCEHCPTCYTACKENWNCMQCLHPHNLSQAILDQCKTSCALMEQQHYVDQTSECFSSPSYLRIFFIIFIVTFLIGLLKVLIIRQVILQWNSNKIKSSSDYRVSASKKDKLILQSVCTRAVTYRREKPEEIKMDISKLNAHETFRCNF

T2 sequence (P05106 27-788 limits assumed): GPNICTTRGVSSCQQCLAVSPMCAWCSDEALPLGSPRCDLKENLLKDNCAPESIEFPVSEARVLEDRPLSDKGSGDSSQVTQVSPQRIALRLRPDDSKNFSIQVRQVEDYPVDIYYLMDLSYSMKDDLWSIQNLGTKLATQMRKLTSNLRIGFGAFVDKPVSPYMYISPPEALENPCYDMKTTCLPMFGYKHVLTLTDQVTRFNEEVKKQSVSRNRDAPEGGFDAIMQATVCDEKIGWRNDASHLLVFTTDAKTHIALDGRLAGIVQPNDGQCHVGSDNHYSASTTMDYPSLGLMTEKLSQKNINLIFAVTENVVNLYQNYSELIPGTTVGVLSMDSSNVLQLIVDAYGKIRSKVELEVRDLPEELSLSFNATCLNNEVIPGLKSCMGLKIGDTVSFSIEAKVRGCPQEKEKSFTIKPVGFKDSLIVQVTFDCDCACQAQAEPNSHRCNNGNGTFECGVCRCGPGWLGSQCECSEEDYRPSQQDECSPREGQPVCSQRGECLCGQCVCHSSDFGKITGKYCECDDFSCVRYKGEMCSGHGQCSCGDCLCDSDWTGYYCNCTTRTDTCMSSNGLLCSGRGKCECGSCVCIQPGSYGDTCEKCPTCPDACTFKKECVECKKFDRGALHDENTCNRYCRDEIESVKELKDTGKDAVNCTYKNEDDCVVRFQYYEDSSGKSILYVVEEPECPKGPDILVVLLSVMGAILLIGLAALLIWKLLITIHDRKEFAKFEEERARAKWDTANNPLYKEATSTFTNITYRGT
T2 sequence (P06756 31-889 limits assumed): as the sequence (P06756 31-889 limits assumed) above
T2 sequence (P06756 891-1048 limits assumed): as the sequence (P06756 891-1048 limits assumed) above
T1 sequence (P06756 31-889 limits assumed): as the sequence (P06756 31-889 limits assumed) above
T1 sequence (P06756 891-1048 limits assumed): as the sequence (P06756 891-1048 limits assumed) above
T1 sequence (P18084 24-799 limits assumed): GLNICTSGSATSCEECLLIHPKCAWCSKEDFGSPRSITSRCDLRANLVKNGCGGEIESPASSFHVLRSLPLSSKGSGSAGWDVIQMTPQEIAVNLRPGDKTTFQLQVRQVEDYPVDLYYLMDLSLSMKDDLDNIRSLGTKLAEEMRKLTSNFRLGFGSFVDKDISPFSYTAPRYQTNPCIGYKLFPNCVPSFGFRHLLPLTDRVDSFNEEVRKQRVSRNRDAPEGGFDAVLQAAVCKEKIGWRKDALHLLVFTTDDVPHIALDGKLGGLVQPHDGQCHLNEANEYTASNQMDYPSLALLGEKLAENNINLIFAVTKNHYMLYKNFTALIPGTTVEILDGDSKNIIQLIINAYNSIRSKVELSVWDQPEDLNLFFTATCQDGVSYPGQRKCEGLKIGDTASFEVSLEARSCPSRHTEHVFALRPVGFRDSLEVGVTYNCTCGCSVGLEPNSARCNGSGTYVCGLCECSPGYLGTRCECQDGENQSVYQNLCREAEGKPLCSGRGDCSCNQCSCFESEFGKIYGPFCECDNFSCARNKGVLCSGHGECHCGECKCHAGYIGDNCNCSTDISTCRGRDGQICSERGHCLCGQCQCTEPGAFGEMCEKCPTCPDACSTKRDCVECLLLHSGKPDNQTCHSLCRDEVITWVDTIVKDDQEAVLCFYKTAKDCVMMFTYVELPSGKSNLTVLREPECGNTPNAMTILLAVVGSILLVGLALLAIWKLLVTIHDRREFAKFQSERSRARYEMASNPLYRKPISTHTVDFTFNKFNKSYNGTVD
Integrin alpha-V/beta-1, sequence (P05556 21-798 limits assumed): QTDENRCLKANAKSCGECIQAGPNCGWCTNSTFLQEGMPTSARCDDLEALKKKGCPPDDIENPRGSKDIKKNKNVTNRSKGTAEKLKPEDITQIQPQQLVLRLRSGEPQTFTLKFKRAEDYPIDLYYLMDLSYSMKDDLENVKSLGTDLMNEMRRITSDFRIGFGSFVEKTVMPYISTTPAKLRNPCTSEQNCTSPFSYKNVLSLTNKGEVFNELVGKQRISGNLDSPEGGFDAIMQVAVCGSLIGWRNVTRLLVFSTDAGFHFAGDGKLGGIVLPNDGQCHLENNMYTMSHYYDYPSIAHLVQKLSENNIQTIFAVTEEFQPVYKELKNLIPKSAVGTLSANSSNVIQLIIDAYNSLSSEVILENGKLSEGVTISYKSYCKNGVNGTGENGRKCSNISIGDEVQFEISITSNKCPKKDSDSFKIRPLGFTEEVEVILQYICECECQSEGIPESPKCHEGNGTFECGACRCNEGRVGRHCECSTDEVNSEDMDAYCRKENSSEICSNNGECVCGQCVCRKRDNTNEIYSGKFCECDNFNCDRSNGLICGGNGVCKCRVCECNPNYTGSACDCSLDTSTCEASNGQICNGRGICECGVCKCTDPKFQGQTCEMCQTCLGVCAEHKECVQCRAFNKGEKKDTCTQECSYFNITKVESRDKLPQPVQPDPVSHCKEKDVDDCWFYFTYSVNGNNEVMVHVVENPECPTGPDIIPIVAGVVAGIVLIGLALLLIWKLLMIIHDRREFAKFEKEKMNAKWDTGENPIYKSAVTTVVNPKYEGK
Integrin alpha-V/beta-1, sequence (P06756 31-889 limits assumed): as the sequence (P06756 31-889 limits assumed) above
Integrin alpha-V/beta-1, sequence (P06756 891-1048 limits assumed): as the sequence (P06756 891-1048 limits assumed) above

SMILES | IC50 [1] | IC50 [2] | Ratio IC50 [3] | further results
O=C(O)C[C@H](C(=O)N1CC[C@@H](CCc2ccc3c(n2)NCCC3)C1)c1cccc(Br)c1 | 0.00398 µM | 0.794 µM | 200 | –
O=C(O)C[C@H](C(=O)N1CC[C@@H](CCc2ccc3c(n2)NCCC3)C1)c1cccc(N2CCNCC2)c1 | 0.0158 µM | 1.58 µM | 100 | –
Cc1csc([C@H](CC(=O)O)C(=O)N2CC[C@@H](CCc3ccc4c(n3)NCCC4)C2)c1 | 0.00316 µM | 0.631 µM | 200 | –
O=C(O)C[C@H](C(=O)N1CC[C@@H](CCc2ccc3c(n2)NCCC3)C1)c1cccc(O)c1 | 0.00398 µM | 0.158 µM | 40 | –
O=C(O)C[C@H](C(=O)N1CC[C@@H](CCc2ccc3c(n2)NCCC3)C1)c1cccs1 | 0.00501 µM | 0.794 µM | 160 | –
O=C(O)C[C@H](C(=O)N1CC[C@@H](CCc2ccc3c(n2)NCCC3)C1)c1cccc(C2=CCCC2)c1 | 0.00794 µM | 1.26 µM | 160 | –
O=C(O)C[C@H](C(=O)N1CC[C@@H](CCc2ccc3c(n2)NCCC3)C1)c1ccc(Br)s1 | 0.01 µM | 0.2 µM | 20 | –
Cc1cc(C)cc([C@H](CC(=O)O)C(=O)N2CC[C@@H](CCc3ccc4c(n3)NCCC4)C2)c1 | 0.01 µM | 3.98 µM | 400 | IC50 [4]: 0.501 µM; IC50 [5]: > 10 µM
O=C(O)C[C@H](C(=O)N1CC[C@@H](CCc2ccc3c(n2)NCCC3)C1)c1cccc(Cl)c1 | 0.00251 µM | 1 µM | 400 | IC50 [4]: 0.126 µM; IC50 [5]: 6.31 µM
CN(CCCCc1ccc2c(n1)NCCC2)C(=O)[C@@H](CC(=O)O)c1ccccc1 | 0.2 µM | 5.01 µM | 25 | –
O=C(O)C[C@H](C(=O)N1CC[C@@H](CCc2ccc3c(n2)NCCC3)C1)c1cccc(C2CC2)c1 | 0.00794 µM | 6.31 µM | 800 | IC50 [4]: 0.316 µM; IC50 [5]: > 10 µM
O=C(O)C[C@H](C(=O)N1CC[C@@H](CCc2ccc3c(n2)NCCC3)C1)c1ccc(Br)cc1 | 0.00631 µM | 1.26 µM | 200 | –
O=C(O)C[C@H](C(=O)N1CC[C@@H](CCc2ccc3c(n2)NCCC3)C1)c1ccsc1 | 0.00398 µM | 0.501 µM | 125 | –
O=C(O)C[C@H](C(=O)N1CC[C@@H](CCc2ccc3c(n2)NCCC3)C1)c1cccc(C2CCCC2)c1 | – | 2.51 µM | 200 | –
N#Cc1cccc([C@H](CC(=O)O)C(=O)N2CC[C@@H](CCc3ccc4c(n3)NCCC4)C2)c1 | 0.00316 µM | 0.501 µM | 160 | CLH [6]: < 0.45 mL/min/g; clearance [7]: < 0.36 L/h/kg; CLH [8]: < 0.42 L/h/kg; CLH [9]: 1.4 mL/min/g; clearance [10]: < 0.46 mL/min/g; chromatographic logD [11]: 3.69; clearance [12]: < 0.4 mL/min/g; CLH [13]: 1.8 L/h/kg; solubility [14]: 0.192 mg/mL (≈ 444 µM); Papp [15]: 57 nm/s; clearance [16]: < 0.84 L/h/kg
C=C(C)c1cccc([C@H](CC(=O)O)C(=O)N2CC[C@@H](CCc3ccc4c(n3)NCCC4)C2)c1 | 0.00501 µM | 2.51 µM | 500 | IC50 [4]: 0.316 µM; IC50 [5]: > 10 µM

SMILES | IC50 [1] | IC50 [2] | Ratio IC50 [3] | further results
O=C(O)C[C@H](C(=O)N1CC(CCc2ccc3c(n2)NCCC3)C1)c1ccccc1 | 0.0251 µM | 3.16 µM | 125 | –
Cc1ccc([C@H](CC(=O)O)C(=O)N2CC[C@@H](CCc3ccc4c(n3)NCCC4)C2)s1 | 0.00631 µM | 0.158 µM | 25 | –
O=C(O)C[C@H](C(=O)N1CC[C@@H](CCc2ccc3c(n2)NCCC3)C1)c1cc(Br)cs1 | 0.00316 µM | 0.316 µM | 100 | –
O=C(O)C[C@@H](C(=O)N1CC[C@@H](CCc2ccc3c(n2)NCCC3)C1)c1cccc(Br)c1 | 2 µM | 10 µM | 5 | –
O=C(O)C[C@H](C(=O)N1CC(CCCc2ccc3c(n2)NCCC3)C1)c1ccccc1 | 0.00794 µM | 0.794 µM | 100 | –
O=C(O)C[C@H](C(=O)N1CC[C@@H](CCc2ccc3c(n2)NCCC3)C1)c1cccc(-c2ccccc2)c1 | 0.00631 µM | 2 µM | 320 | –
Cc1cccc([C@H](CC(=O)O)C(=O)N2CC[C@@H](CCc3ccc4c(n3)NCCC4)C2)c1 | 0.00398 µM | 1.58 µM | 400 | CLH [6]: < 0.45 mL/min/g; IC50 [4]: 0.0794 µM; clearance [7]: < 0.36 L/h/kg; CLH [8]: < 0.42 L/h/kg; CLH [9]: 3.2 mL/min/g; clearance [10]: < 0.46 mL/min/g; chromatographic logD [11]: 4.16; clearance [12]: < 0.4 mL/min/g; CLH [13]: 2.76 L/h/kg; solubility [14]: 0.142 mg/mL (≈ 337 µM); Papp [15]: 176 nm/s; clearance [16]: < 0.84 L/h/kg; IC50 [5]: 6.31 µM
O=C(O)C[C@H](C(=O)N1CC[C@@H](CCc2ccc3c(n2)NCCC3)C1)c1ccccc1Br | 1.26 µM | 12.6 µM | 10 | –
O=C(O)C[C@H](C(=O)N1CC[C@@H](CCc2ccc3c(n2)NCCC3)C1)c1cc(Br)cc(Br)c1 | 0.00501 µM | 1.58 µM | 320 | –
O=C(O)C[C@H](C(=O)N1CC[C@@H](CCc2ccc3c(n2)NCCC3)C1)c1cccc(C(F)(F)F)c1 | – | 5.01 µM | 800 | CLH [6]: < 0.45 mL/min/g; IC50 [4]: 0.794 µM; clearance [7]: < 0.36 L/h/kg; CLH [8]: < 0.42 L/h/kg; CLH [9]: 14.3 mL/min/g; clearance [10]: < 0.46 mL/min/g; chromatographic logD [11]: 5.05; clearance [12]: < 0.4 mL/min/g; CLH [13]: 4.08 L/h/kg; solubility [14]: 0.141 mg/mL (≈ 297 µM); Papp [15]: 295 nm/s; clearance [16]: < 0.84 L/h/kg; IC50 [5]: > 10 µM
CN1CCN(c2cccc([C@H](CC(=O)O)C(=O)N3CC[C@@H](CCc4ccc5c(n4)NCCC5)C3)c2)CC1 | 0.01 µM | 1.26 µM | 125 | –
CNc1cccc(CCOc2ccc3c(ccn3CCC(=O)O)c2)n1 | 0.01 µM | 0.0398 µM | 4 | –
O=C(O)C[C@H](C(=O)N1CC[C@@H](CCc2ccc3c(n2)NCCC3)C1)c1ccccc1 | 0.00398 µM | 1 µM | 250 | IC50 [17]: 3.98 µM; IC50 [18]: > 79.4 µM; IC50 [19]: > 79.4 µM
O=C(O)C[C@H](C(=O)N1CCCC(CCc2ccc3c(n2)NCCC3)C1)c1ccccc1 (some centres not stated) | 0.501 µM | 6.31 µM | 13 | –
O=C(O)CCn1ccc2cc(OCCCNc3ccccn3)ccc21 | 0.0398 µM | 0.251 µM | 6 | –
O=C(O)C[C@H](C(=O)N1CC[C@@H](CCc2ccc3c(n2)NCCC3)C1)c1cccc(N2CCOCC2)c1 | 0.0126 µM | 2 µM | 160 | –
